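Protocol summary: plate cells (96-well), add compound at 5 concentrations, incubate 48 h, interpolate endpoints linearly. TGI is the concentration that stops growth completely.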
tested on: OVCAR-8 ovarian; assay: DTP human tumour cell line panel, 48 h

| Compound | TGI [µM] |
| --- | --- |
| CC(C)C(NC(=O)C(Cc1ccccc1)NC(=O)[C@H]1CCC[C@H]1NC(=O)C(Cc1ccc(OC(C)(C)C)cc1)NC(=O)OC(C)(C)C)C(N)=O (stereo not given in full) | 34.9 |
| N#C/C(=C\c1ccc2[nH]ccc2c1)C(=O)c1ccc(O)c(O)c1 | > 100 |
| CC(=O)Nc1ccc(-c2nnc(SCC(=O)Nc3ccc(Cl)cc3)o2)cc1 | 74.1 |
| COc1ccc2c([nH]c3c(O)c(-c4c(C)cc5c([nH]c6c(CC=C(C)C)c(OC)ccc65)c4O)c(C)cc32)c1CC=C(C)C | > 100 |
| COc1ccc(CNc2nc3ccccc3nc2C(=O)O)cc1 | > 100 |
| COc1ccc(-n2cnc3c(NC(Cc4ccccc4)C(=O)O)ncnc32)cc1 (stereo not given) | > 100 |
| CC(C)(C)C1=C(Br)C(OC(=O)C(F)(F)F)(C(C)(C)C)OP1(=O)c1ccccc1 (stereo not given) | > 100 |
| NN/C(=N\S(=O)(=O)c1ccc(S(=O)(=O)c2ccccc2)s1)Nc1ccc(Cl)cc1 | > 100 |
| CC(C)(C)[Si](C)(C)OC[C@H](/C=C\CCCC(=O)O)NC1(c2ccccc2)c2ccccc2-c2ccccc21 | 46.2 |
| CCOC(=O)C(C/C=C/CO)N(C)C(=O)OC(C)(C)C (stereo not given) | > 100 |
| Cc1csc(-n2c(C)nc3cc(Cl)ccc3c2=O)n1 | > 100 |

tested on: HS 578T breast; assay: DTP human tumour cell line panel, 48 h

| Compound | TGI [µM] |
| --- | --- |
| COCCN1C(=O)C2c3[nH]c4ccccc4c3C3CCC(C(C)(C)C)CC3C2C1=O (stereo not given) | 38.8 |
| O=C(O)c1ccc(N/C(=C(/C(Cl)=C(Cl)Cl)[N+](=O)[O-])n2nnc3ccccc32)cc1 | > 100 |
| C(#Cc1ccccc1)SC1=C(c2ccccc2)S/C(=C(\SC#Cc2ccccc2)c2ccccc2)S1 | > 100 |
| COC(=O)c1cc(/C=C\c2cc(OC)ccc2OC)ccc1OC | > 100 |
| CCOC(=O)C(C(=O)COC(C)(C)C)[C@@H]1C=C[C@H](OC(C)=O)C1 (stereo not given in full) | > 100 |
| O=C(Cc1ccccc1)NN1C(=O)/C(=C\c2ccccc2O)SC1=Nc1ccccc1 | > 100 |
| O=c1[nH]nc(-c2ccccc2)n1-n1cnnc1 | > 100 |
| CCCCCCCCCCCCOP(=O)(O)OP(=O)(O)OCC1OC(n2cc(C)c(=O)[nH]c2=O)CC1O (stereo not given) | > 100 |
| CCOc1cc2c(cc1O)C(N)C[C@@H]1[C@@H]2CC[C@]2(C)[C@@H](O)CC[C@@H]12 (stereo not given in full) | > 100 |
| N#C/C(=C\c1ccc2[nH]ccc2c1)C(=O)c1ccc(O)c(O)c1 | > 100 |
| COc1ccc(CNc2nc3ccccc3nc2C(=O)O)cc1 | > 100 |
| COc1ccc(-n2cnc3c(NC(Cc4ccccc4)C(=O)O)ncnc32)cc1 (stereo not given) | > 100 |
| CC(C)(C)C1=C(Br)C(OC(=O)C(F)(F)F)(C(C)(C)C)OP1(=O)c1ccccc1 (stereo not given) | 65.5 |
| CC(C)(C)[Si](C)(C)OC[C@H](/C=C\CCCC(=O)O)NC1(c2ccccc2)c2ccccc2-c2ccccc21 | 50.5 |
| CCOC(=O)C(C/C=C/CO)N(C)C(=O)OC(C)(C)C (stereo not given) | > 100 |

tested on: COLO 205 colon; assay: DTP human tumour cell line panel, 48 h

| Compound | TGI [µM] |
| --- | --- |
| COCCN1C(=O)C2c3[nH]c4ccccc4c3C3CCC(C(C)(C)C)CC3C2C1=O (stereo not given) | 33.7 |
| O=C(O)c1ccc(N/C(=C(/C(Cl)=C(Cl)Cl)[N+](=O)[O-])n2nnc3ccccc32)cc1 | > 100 |
| O=c1c2ccccc2nc(-c2ccccc2)n1NC(=S)Nc1cccc(Cl)c1 | > 100 |
| CCn1c2ccccc2c2cc(Nc3cc(C)[nH]c(=O)n3)ccc21 | > 100 |
| C(#Cc1ccccc1)SC1=C(c2ccccc2)S/C(=C(\SC#Cc2ccccc2)c2ccccc2)S1 | > 100 |
| COC(=O)c1cc(/C=C\c2cc(OC)ccc2OC)ccc1OC | 59.7 |
| Cc1ccc(S(=NS(=O)(=O)c2ccc(C)cc2)c2ccc(C)cc2)cc1 | > 100 |
| CCOC(=O)C(C(=O)COC(C)(C)C)[C@@H]1C=C[C@H](OC(C)=O)C1 (stereo not given in full) | > 100 |
| CCOC(=O)CC(NC(=O)c1ccc(N=NN(C)C)cc1)C(=O)OCC (stereo not given) | > 100 |
| CN(C)CN(C)c1nc(N(C)C)nc(N(C)CN(C)C)n1 | 61.6 |
| O=C(Cc1ccccc1)NN1C(=O)/C(=C\c2ccccc2O)SC1=Nc1ccccc1 | > 100 |
| O=c1[nH]nc(-c2ccccc2)n1-n1cnnc1 | > 100 |
| CCCCCCCCCCCCOP(=O)(O)OP(=O)(O)OCC1OC(n2cc(C)c(=O)[nH]c2=O)CC1O (stereo not given) | > 100 |
| O=C1c2cc([N+](=O)[O-])sc2C(=O)c2c([N+](=O)[O-])csc21 | 3.26 |
| CCOc1cc2c(cc1O)C(N)C[C@@H]1[C@@H]2CC[C@]2(C)[C@@H](O)CC[C@@H]12 (stereo not given in full) | > 100 |
| Cc1ccc(S(=O)(=O)Nn2c(O)c(C#N)c(-c3ccc([N+](=O)[O-])cc3)c(C#N)c2=O)cc1 | > 100 |
| CC(C)[Si](OCC1CC(C#N)OC(C)(C)O1)(C(C)C)C(C)C (stereo not given) | 31.7 |
| CC(C)C(NC(=O)C(Cc1ccccc1)NC(=O)[C@H]1CCC[C@H]1NC(=O)C(Cc1ccc(OC(C)(C)C)cc1)NC(=O)OC(C)(C)C)C(N)=O (stereo not given in full) | 36.9 |
| N#C/C(=C\c1ccc2[nH]ccc2c1)C(=O)c1ccc(O)c(O)c1 | > 100 |
| CC(=O)Nc1ccc(-c2nnc(SCC(=O)Nc3ccc(Cl)cc3)o2)cc1 | 34.6 |
| COc1ccc2c([nH]c3c(O)c(-c4c(C)cc5c([nH]c6c(CC=C(C)C)c(OC)ccc65)c4O)c(C)cc32)c1CC=C(C)C | > 100 |
| COc1ccc(CNc2nc3ccccc3nc2C(=O)O)cc1 | > 100 |
| COc1ccc(-n2cnc3c(NC(Cc4ccccc4)C(=O)O)ncnc32)cc1 (stereo not given) | > 100 |
| CC(=O)OCC1OC(n2c(-c3ccccc3)c(N=Nc3ccc(C)cc3)c(C)c(C#N)c2=S)C(OC(C)=O)C(OC(C)=O)C1OC(C)=O (stereo not given) | > 100 |
| CC(C)(C)C1=C(Br)C(OC(=O)C(F)(F)F)(C(C)(C)C)OP1(=O)c1ccccc1 (stereo not given) | 34 |
| NN/C(=N\S(=O)(=O)c1ccc(S(=O)(=O)c2ccccc2)s1)Nc1ccc(Cl)cc1 | 46.2 |
| CC(C)(C)[Si](C)(C)OC[C@H](/C=C\CCCC(=O)O)NC1(c2ccccc2)c2ccccc2-c2ccccc21 | 26.5 |
| CCOC(=O)C(C/C=C/CO)N(C)C(=O)OC(C)(C)C (stereo not given) | > 100 |
| Cc1csc(-n2c(C)nc3cc(Cl)ccc3c2=O)n1 | > 100 |

From PubChem BioAssay (NCI)
